Reference: US5294611A, “Angiotensin II receptor blocking 2,3,6 substituted quinazolinones” (American Cyanamid Company, priority 1993, dated 1994)
Read-outs that look alike come from different tables or passages of the source.

Test system: Angiotensin II (AII) vasopressor response
Assay: AII Challenge: antagonism of angiotensin II vasopressor response in conscious spontaneously hypertensive rats
Assay type: in vivo, rat (male okamoto-Aoki SHR)
Conditions: for inhibition in vivo at 3 mg/kg: Rattus norvegicus, read-out: Inhibition; for Change: single SHR
Summary of the method: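 Read-out is the systolic pressure increase (mmHg) to i.v. angiotensin II, 0.05 and 0.1 ug/kg, compared pre- and post-dose in restrained, conscious spontaneously hypertensive male rats. Compounds administered orally, i.p. or i.v.; arterial cannula inserted under local anaesthesia.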

[1] = iv, 0.5 h, SHR n=2, 3 mg/kg I.V., AII 0.05 mcg/kg IV, 30 min post dose
[2] = iv, 0.5 h, SHR n=2, 3 mg/kg I.V., AII 0.1 mcg/kg IV, 30 min post dose
[3] = iv, 1 h, SHR n=2, 3 mg/kg I.V., AII 0.05 mcg/kg IV, 60 min post dose
[4] = iv, 1 h, SHR n=2, 3 mg/kg I.V., AII 0.1 mcg/kg IV, 60 min post dose
[5] = iv, 2 h, SHR n=2, 3 mg/kg I.V., AII 0.05 mcg/kg IV, 120 min post dose
[6] = iv, 2 h, SHR n=2, 3 mg/kg I.V., AII 0.1 mcg/kg IV, 120 min post dose
[7] = iv, 3 h, SHR n=2, 3 mg/kg I.V., AII 0.1 mcg/kg IV, 180 min post dose
[8] = iv, 4 h, SHR n=2, 3 mg/kg I.V., AII 0.05 mcg/kg IV, 240 min post dose
[9] = iv, 5 h, SHR n=2, 3 mg/kg I.V., AII 0.05 mcg/kg IV, 300 min post dose
[10] = iv, 5 h, SHR n=2, 3 mg/kg I.V., AII 0.1 mcg/kg IV, 300 min post dose
[11] = iv, […], SHR n=2, 3 mg/kg I.V., AII 0.05 mcg/kg IV, 90 min post dose
[12] = iv, […], SHR n=2, 3 mg/kg I.V., AII 0.1 mcg/kg IV, 90 min post dose
[13] = po, 0.5 h, SHR n=2, 3 mg/kg P.O., AII 0.05 mcg/kg IV, 30 min post dose
[14] = po, 0.5 h, SHR n=2, 3 mg/kg P.O., AII 0.1 mcg/kg IV, 30 min post dose
[15] = po, 1 h, SHR n=2, 3 mg/kg P.O., AII 0.05 mcg/kg IV, 60 min post dose
[16] = po, 1 h, SHR n=2, 3 mg/kg P.O., AII 0.1 mcg/kg IV, 60 min post dose
[17] = po, 2 h, SHR n=2, 3 mg/kg P.O., AII 0.05 mcg/kg IV, 120 min post dose
[18] = po, 2 h, SHR n=2, 3 mg/kg P.O., AII 0.1 mcg/kg IV, 120 min post dose
[19] = po, 3 h, SHR n=2, 3 mg/kg P.O., AII 0.05 mcg/kg IV, 180 min post dose
[20] = po, 3 h, SHR n=2, 3 mg/kg P.O., AII 0.1 mcg/kg IV, 180 min post dose
[21] = po, […], SHR n=2, 3 mg/kg P.O., AII 0.05 mcg/kg IV, 90 min post dose
[22] = po, […], SHR n=2, 3 mg/kg P.O., AII 0.1 mcg/kg IV, 90 min post dose
[23] = SHR n=2, 3 mg/kg I.V., AII 0.05 mcg/kg IV, 30 min post dose
[24] = SHR n=2, 3 mg/kg I.V., AII 0.05 mcg/kg IV, 60 min post dose
[25] = SHR n=2, 3 mg/kg I.V., AII 0.05 mcg/kg IV, 90 min post dose
[26] = SHR n=2, 3 mg/kg I.V., AII 0.05 mcg/kg IV, 120 min post dose
[27] = SHR n=2, 3 mg/kg I.V., AII 0.05 mcg/kg IV, 180 min post dose
[28] = SHR n=2, 3 mg/kg I.V., AII 0.05 mcg/kg IV, 240 min post dose
[29] = SHR n=2, 3 mg/kg I.V., AII 0.05 mcg/kg IV, 300 min post dose
[30] = SHR n=2, 3 mg/kg I.V., AII 0.1 mcg/kg IV, 30 min post dose
[31] = SHR n=2, 3 mg/kg I.V., AII 0.1 mcg/kg IV, 60 min post dose
[32] = SHR n=2, 3 mg/kg I.V., AII 0.1 mcg/kg IV, 90 min post dose
[33] = SHR n=2, 3 mg/kg I.V., AII 0.1 mcg/kg IV, 120 min post dose
[34] = SHR n=2, 3 mg/kg I.V., AII 0.1 mcg/kg IV, 180 min post dose
[35] = SHR n=2, 3 mg/kg I.V., AII 0.1 mcg/kg IV, 240 min post dose
[36] = SHR n=2, 3 mg/kg I.V., AII 0.1 mcg/kg IV, 300 min post dose
[37] = SHR n=2, 3 mg/kg P.O., AII 0.05 mcg/kg IV, 30 min post dose
[38] = SHR n=2, 3 mg/kg P.O., AII 0.05 mcg/kg IV, 60 min post dose
[39] = SHR n=2, 3 mg/kg P.O., AII 0.05 mcg/kg IV, 90 min post dose
[40] = SHR n=2, 3 mg/kg P.O., AII 0.05 mcg/kg IV, 120 min post dose
[41] = SHR n=2, 3 mg/kg P.O., AII 0.05 mcg/kg IV, 180 min post dose
[42] = SHR n=2, 3 mg/kg P.O., AII 0.1 mcg/kg IV, 30 min post dose
[43] = SHR n=2, 3 mg/kg P.O., AII 0.1 mcg/kg IV, 60 min post dose
[44] = SHR n=2, 3 mg/kg P.O., AII 0.1 mcg/kg IV, 90 min post dose
[45] = SHR n=2, 3 mg/kg P.O., AII 0.1 mcg/kg IV, 120 min post dose
[46] = SHR n=2, 3 mg/kg P.O., AII 0.1 mcg/kg IV, 180 min post dose
[47] = 3 mg/kg I.V., AII 0.05 mcg/kg IV, 60 min post dose
[48] = 3 mg/kg I.V., AII 0.05 mcg/kg IV, 90 min post dose
[49] = 3 mg/kg I.V., AII 0.1 mcg/kg IV, 90 min post dose

In the case of `CCCCc1nc2ccc([C@H]3[C@@H]4C(=O)CC[C@@H]4ON3Cc3ccccc3)cc2c(=O)n1Cc1ccc(-c2ccccc2-c2nnn[nH]2)cc1` (relative stereo) [Example 55], the inhibition in vivo at 3 mg/kg [1] is reported as 97%, the inhibition in vivo at 3 mg/kg [2] is reported as 95% and the inhibition in vivo at 3 mg/kg [3] is reported as 100%. The inhibition in vivo at 3 mg/kg [4] was 95%, the inhibition in vivo at 3 mg/kg [5] was 97% and the inhibition in vivo at 3 mg/kg [6] was 94%. For the same molecule, the inhibition in vivo at 3 mg/kg [7] was 77%, the inhibition in vivo at 3 mg/kg [8] was 89% and the inhibition in vivo at 3 mg/kg (iv, 4 h) was 82%. For the same molecule, the inhibition in vivo at 3 mg/kg [9] was 61%, the inhibition in vivo at 3 mg/kg [10] was 50% and the inhibition in vivo at 3 mg/kg [11] was 89%. For the same molecule, the inhibition in vivo at 3 mg/kg [12] was 91%, the inhibition in vivo at 3 mg/kg [13] was 21% and the inhibition in vivo at 3 mg/kg [14] was 17%. It also gave an inhibition in vivo at 3 mg/kg [15] of 7%, an inhibition in vivo at 3 mg/kg [16] of 11% and an inhibition in vivo at 3 mg/kg [17] of 21%. It also gave an inhibition in vivo at 3 mg/kg [18] of 39%, an inhibition in vivo at 3 mg/kg [19] of 14% and an inhibition in vivo at 3 mg/kg [20] of 28%. The inhibition in vivo at 3 mg/kg [21] was 14%, the inhibition in vivo at 3 mg/kg [22] was 17% and the “Average Change” value [23] was 1.5 mmHg. For the same molecule, the “Average Change” value [24] was 0 mmHg, the “Average Change” value [25] was 5 mmHg and the “Average Change” value [26] was 1.5 mmHg. For the same molecule, the “Average Change” value [27] was 2.5 mmHg, the “Average Change” value [28] was 5 mmHg and the “Average Change” value [29] was 17.5 mmHg. The “Average Change” value [30] was 2.5 mmHg, the “Average Change” value [31] was 2.5 mmHg and the “Average Change” value [32] was 5 mmHg. The “Average Change” value [33] was 3.5 mmHg, the “Average Change” value [34] was 12.5 mmHg and the “Average Change” value [35] was 10 mmHg. For the same molecule, the “Average Change” value [36] was 27.5 mmHg, the “Average Change” value [37] was 27.5 mmHg and the “Average Change” value [38] was 32.5 mmHg. For the same molecule, the “Average Change” value [39] was 30 mmHg, the “Average Change” value [40] was 27.5 mmHg and the “Average Change” value [41] was 30 mmHg. The “Average Change” value [42] was 37.5 mmHg, the “Average Change” value [43] was 40 mmHg and the “Average Change” value [44] was 37.5 mmHg. For the same molecule, the “Average Change” value [45] was 27.5 mmHg, the “Average Change” value [46] was 32.5 mmHg and the Change [47] was 0 mmHg. The Change [48] was 5 mmHg, the Change (3 mg/kg I.V., AII 0.05 mcg/kg IV, 240 min post dose) was 5 mmHg and the Change [49] was 5 mmHg. It also gave a Change (3 mg/kg I.V., AII 0.1 mcg/kg IV, 240 min post dose) of 10 mmHg and a Change (3 mg/kg P.O., AII 0.1 mcg/kg IV, 60 min post dose) of 40 mmHg.
`CCCCc1nc2ccc([C@@H]3[C@@H]4C(=O)OC[C@@H]4ON3Cc3ccccc3)cc2c(=O)n1Cc1ccc(-c2ccccc2-c2nnn[nH]2)cc1` (relative stereo) [Example 56] was tested, and the inhibition in vivo at 3 mg/kg [1] was 100%, the inhibition in vivo at 3 mg/kg [2] was 100% and the inhibition in vivo at 3 mg/kg [3] was 100%. The inhibition in vivo at 3 mg/kg [4] was 89%, the inhibition in vivo at 3 mg/kg [5] was 77% and the inhibition in vivo at 3 mg/kg [6] was 78%. The inhibition in vivo at 3 mg/kg (iv, 3 h, SHR n=2, 3 mg/kg I.V., AII 0.05 mcg/kg IV, 180 min post dose) was 77%, the inhibition in vivo at 3 mg/kg [7] was 76% and the inhibition in vivo at 3 mg/kg [8] was 72%. The inhibition in vivo at 3 mg/kg (iv, 4 h, SHR n=2, 3 mg/kg I.V., AII 0.1 mcg/kg IV, 240 min post dose) was 56%, the inhibition in vivo at 3 mg/kg [9] was 65% and the inhibition in vivo at 3 mg/kg [10] was 67%. The inhibition in vivo at 3 mg/kg [11] was 100%, the inhibition in vivo at 3 mg/kg [12] was 89% and the inhibition in vivo at 3 mg/kg [13] was 31%. It also gave an inhibition in vivo at 3 mg/kg [14] of 11%, an inhibition in vivo at 3 mg/kg [15] of 18% and an inhibition in vivo at 3 mg/kg [16] of 19%. For the same molecule, the inhibition in vivo at 3 mg/kg [17] was 36%, the inhibition in vivo at 3 mg/kg [18] was 27% and the inhibition in vivo at 3 mg/kg [19] was -9%. For the same molecule, the inhibition in vivo at 3 mg/kg [20] was 3%, the inhibition in vivo at 3 mg/kg [21] was 36% and the inhibition in vivo at 3 mg/kg [22] was 19%. For the same molecule, the “Average Change” value [23] was 0 mmHg, the “Average Change” value [24] was 0 mmHg and the “Average Change” value [25] was 0 mmHg. The “Average Change” value [26] was 7.5 mmHg, the “Average Change” value [27] was 7.5 mmHg and the “Average Change” value [28] was 9 mmHg. For the same molecule, the “Average Change” value [29] was 11.5 mmHg, the “Average Change” value [30] was 0 mmHg and the “Average Change” value [31] was 5 mmHg. The “Average Change” value [32] was 5 mmHg, the “Average Change” value [33] was 10 mmHg and the “Average Change” value [34] was 11 mmHg. For the same molecule, the “Average Change” value [35] was 20 mmHg, the “Average Change” value [36] was 15 mmHg and the “Average Change” value [37] was 19 mmHg. The “Average Change” value [38] was 22.5 mmHg, the “Average Change” value [39] was 17.5 mmHg and the “Average Change” value [40] was 17.5 mmHg. The “Average Change” value [41] was 30 mmHg, the “Average Change” value [42] was 27.5 mmHg and the “Average Change” value [43] was 25 mmHg. For the same molecule, the “Average Change” value [44] was 25 mmHg, the “Average Change” value [45] was 22.5 mmHg and the “Average Change” value [46] was 30 mmHg. For the same molecule, the Change (3 mg/kg I.V., AII 0.05 mcg/kg IV, 30 min post dose) was 0 mmHg, the Change [47] was 0 mmHg and the Change [48] was 0 mmHg. The Change (3 mg/kg I.V., AII 0.1 mcg/kg IV, 30 min post dose) was 0 mmHg, the Change (3 mg/kg I.V., AII 0.1 mcg/kg IV, 60 min post dose) was 5 mmHg and the Change [49] was 5 mmHg. It also gave a Change (3 mg/kg I.V., AII 0.1 mcg/kg IV, 120 min post dose) of 10 mmHg and a Change (3 mg/kg P.O., AII 0.1 mcg/kg IV, 180 min post dose) of 30 mmHg.
